Assay results published in patent publication US20250312352A1, “GLP-1R MODULATING COMPOUNDS” (Gilead Sciences, Inc., priority 2021, published 2025).

Target: T1, GLP-1R (Homo sapiens, UniProt P43220)
T1 construct: host or cells: CHO cells
Experiment: GLP-1R activation cAMP assay (Assay 1 or Assay 2)
Assay type: cell-based
Conditions: cAMP increase in CHO cells stably expressing GLP-1R; compounds run on one of the two cAMP assays
Description: GLP-1R ACTIVATION—cAMP Assay 1
GLP-1R activation by compounds of the present disclosure was quantified by measuring cAMP increase in CHO cells stably expressing GLP-1R (MultiSpan product #C1267-1a). The cells were harvested and plated in growth medium (DMEM/F-12 (Corning product #10-090-CV) supplemented with 10% FBS (HyClone product #SH30071-03), penicillin/streptomycin (Corning product #30-002CI) and 10 μg/ml puromycin (Gibco product #A11138-03)) at 1,000 cells/well in a 384-well plate (Greiner product #781080). The cells were then incubated overnight at 37° C., 5% CO2. The next day, the medium was removed and the cells were washed with DPBS (Corning product #21-031-CM) before adding the assay medium (HBSS, Corning product #21-023-CV) with 20 mM Hepes (Gibco product #15630-080) and 0.1% BSA (Rockland Immunochemicals product #BSA-1000)). Following the medium change, the cells were incubated for 1 hour at 37° C., 5% CO2. The tested GLP-1 compound was added to the cells in a 10-point dose response followed by a 30-minute incubation at 37° C., 5% CO2. cAMP concentration increase was then detected using Cisbio's cAMP Gs Dynamic Kit (product #62AM4PEC) according to the manufacturer's protocol. The response was plotted against the log of the agonist concentration and fitted to a sigmoidal equation to determine the EC50.
GLP-1R ACTIVATION—cAMP Assay 2
GLP-1R activation by small molecule agonists was quantified by measuring cAMP increase in CHO cells stably expressing GLP-1R (MultiSpan product #C1267-1a). 50 nL of agonists were pre-spotted in a 10-point dose response onto 384-well plate (Corning product #CL3826) using the Labcyte Echo System.

T1 sequence (P43220 24-463): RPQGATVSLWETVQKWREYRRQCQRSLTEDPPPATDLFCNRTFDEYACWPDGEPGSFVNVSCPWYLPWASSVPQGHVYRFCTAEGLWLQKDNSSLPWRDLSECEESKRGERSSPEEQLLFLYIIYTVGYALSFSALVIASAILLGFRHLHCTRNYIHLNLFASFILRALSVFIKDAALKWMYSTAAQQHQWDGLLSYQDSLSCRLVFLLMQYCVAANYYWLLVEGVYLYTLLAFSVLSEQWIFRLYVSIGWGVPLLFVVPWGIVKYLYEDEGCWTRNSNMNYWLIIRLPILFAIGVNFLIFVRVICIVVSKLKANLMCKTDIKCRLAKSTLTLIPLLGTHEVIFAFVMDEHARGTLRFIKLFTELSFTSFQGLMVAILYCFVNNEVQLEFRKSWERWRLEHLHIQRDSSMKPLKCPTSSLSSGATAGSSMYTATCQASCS

Row | EC50 [nM] | SMILES
1 | 0.25 | Cn1cncc1C#Cc1ccc(COc2cccc(-c3cc(F)c(Cc4nc5ccc(C(=O)O)cc5n4C[C@@H]4CCO4)cc3F)n2)c(F)c1 [Example 142, (S)-2-(2,5-difluoro-4-(6-((2-fluoro-4-((1-methyl-1H-imidazol-5-yl)ethynyl)benzyl)oxy)pyridin-2-yl)benzyl)-1-(oxetan-2-ylmethyl)-1H-benzo[d]imidazole-6-carboxylic acid]
2 | 0.05 | Cn1cc(C#Cc2cnc(COc3cccc(-c4cc(F)c(Cc5nc6c(F)cc(C(=O)O)cc6n5C[C@@H]5CCO5)cc4F)n3)s2)cn1 [Example 111, 2-[[2,5-difluoro-4-[6-[[5-[2-(1-methylpyrazol-4-yl)ethynyl]thiazol-2-yl]methoxy]-2-pyridyl]phenyl]methyl]-7-fluoro-3-[[(2S)-oxetan-2-yl]methyl]benzimidazole-5-carboxylic acid]
3 | 0.023 | CCOc1nnc(COc2nc(-c3cc(F)c(Cc4nc5c(F)cc(C(=O)O)cc5n4[C@@H]4COCC4(C)C)cc3F)ccc2F)s1 [Example 423, (S)-1-(4,4-dimethyltetrahydrofuran-3-yl)-2-(4-(6-((5-ethoxy-1,3,4-thiadiazol-2-yl)methoxy)-5-fluoropyridin-2-yl)-2,5-difluorobenzyl)-4-fluoro-1H-benzo[d]imidazole-6-carboxylic acid]
4 | 0.3 | N#CC1(NC(=O)c2cc(Cl)c(COc3cccc(-c4cc(F)c(Cc5nc6ccc(C(=O)O)cc6n5C[C@@H]5CCO5)cc4F)n3)cn2)CCC1 [Example 189, (S)-2-(4-(6-((4-chloro-6-((1-cyanocyclobutyl)carbamoyl)pyridin-3-yl)methoxy)pyridin-2-yl)-2,5-difluorobenzyl)-1-(oxetan-2-ylmethyl)-1H-benzo[d]imidazole-6-carboxylic acid]
5 | 0.04 | CNC(=O)c1cc(Cl)c(COc2cccc(-c3cc(F)c(Cc4nc5c(F)cc(C(=O)O)cc5n4C[C@@H]4CCO4)cc3F)n2)cn1 [Example 198, (S)-2-(4-(6-((4-chloro-6-(methylcarbamoyl)pyridin-3-yl)methoxy)pyridin-2-yl)-2,5-difluorobenzyl)-4-fluoro-1-(oxetan-2-ylmethyl)-1H-benzo[d]imidazole-6-carboxylic acid]
6 | 0.235 | O=C(O)c1cc(F)c2nc(Cc3cc(F)c(-c4cccc(OCc5ncc(C#Cc6cncs6)cc5F)n4)cc3F)n(C[C@@H]3CCO3)c2c1 [Example 390, (S)-2-(2,5-difluoro-4-(6-((3-fluoro-5-(thiazol-5-ylethynyl)pyridin-2-yl)methoxy)pyridin-2-yl)benzyl)-4-fluoro-1-(oxetan-2-ylmethyl)-1H-benzo[d]imidazole-6-carboxylic acid]
7 | 0.182 | COc1ncc(C#Cc2cnc(COc3cccc(-c4cc(F)c(Cc5nc6ccc(C(=O)O)cc6n5C[C@@H]5CCO5)cc4F)n3)c(F)c2)s1 [Example 294, (S)-2-(2,5-difluoro-4-(6-((3-fluoro-5-((2-methoxythiazol-5-yl)ethynyl)pyridin-2-yl)methoxy)pyridin-2-yl)benzyl)-1-(oxetan-2-ylmethyl)-1H-benzo[d]imidazole-6-carboxylic acid]
8 | 0.11 | Cn1cc(C#Cc2cnc(COc3cccc(-c4cc(F)c(Cc5nc6ccc(C(=O)O)cc6n5C[C@@H]5CCO5)cc4F)n3)s2)cn1 [Example 114, (S)-2-(2,5-difluoro-4-(6-((5-((1-methyl-1H-pyrazol-4-yl)ethynyl)thiazol-2-yl)methoxy)pyridin-2-yl)benzyl)-1-(oxetan-2-ylmethyl)-1H-benzo[d]imidazole-6-carboxylic acid]
9 | 0.25 | Cc1ncc(C#Cc2ccc(COc3cccc(-c4cc(F)c(Cc5nc6ccc(C(=O)O)cc6n5C[C@@H]5CCO5)cc4F)n3)c(F)c2)o1 [Example 136, (S)-2-(2,5-difluoro-4-(6-((2-fluoro-4-((2-methyloxazol-5-yl)ethynyl)benzyl)oxy)pyridin-2-yl)benzyl)-1-(oxetan-2-ylmethyl)-1H-benzo[d]imidazole-6-carboxylic acid]
10 | 1.51 | COCCn1c(Cc2cc(F)c(-c3cccc(OCc4ccc(C#CC5COC5)cc4F)n3)cc2F)nc2ccc(C(=O)O)cc21 [Example 231, 2-[[2,5-difluoro-4-[6-[[2-fluoro-4-[2-(oxetan-3-yl)ethynyl]phenyl]methoxy]-2-pyridyl]phenyl]methyl]-3-(2-methoxyethyl)benzimidazole-5-carboxylic acid]
11 | 0.59 | O=C(O)c1ccc2nc(Cc3cc(F)c(-c4cccc(OCc5nnc(C6CC6)s5)n4)cc3F)n(C[C@@H]3CCO3)c2c1 [Example 307, (S)-2-(4-(6-((5-cyclopropyl-1,3,4-thiadiazol-2-yl)methoxy)pyridin-2-yl)-2,5-difluorobenzyl)-1-(oxetan-2-ylmethyl)-1H-benzo[d]imidazole-6-carboxylic acid]
12 | 0.028 | CC(F)(F)c1cnc(COc2cccc(-c3cc(F)c(Cc4nc5c(F)cc(C(=O)O)cc5n4C[C@@H]4CCO4)cc3F)n2)s1 [Example 318, (S)-2-(4-(6-((5-(1,1-difluoroethyl)thiazol-2-yl)methoxy)pyridin-2-yl)-2,5-difluorobenzyl)-4-fluoro-1-(oxetan-2-ylmethyl)-1H-benzo[d]imidazole-6-carboxylic acid]
13 | 34.6 | Cn1cnc(COc2cccc(-c3cc(F)c(Cc4nc5ccc(C(=O)O)cc5n4C[C@@H]4CCO4)cc3F)n2)c1 [Example 177, (S)-2-(2,5-difluoro-4-(6-((1-methyl-1H-imidazol-4-yl)methoxy)pyridin-2-yl)benzyl)-1-(oxetan-2-ylmethyl)-1H-benzo[d]imidazole-6-carboxylic acid]
14 | 0.036 | Cn1cc(C#Cc2cnc(COc3nc(-c4cc(F)c(Cc5nc6c(F)cc(C(=O)O)cc6n5C[C@@H]5CCO5)cc4F)ccc3F)c(F)c2)cn1 [Example 296, (S)-2-(2,5-difluoro-4-(5-fluoro-6-((3-fluoro-5-((1-methyl-1H-pyrazol-4-yl)ethynyl)pyridin-2-yl)methoxy)pyridin-2-yl)benzyl)-4-fluoro-1-(oxetan-2-ylmethyl)-1H-benzo[d]imidazole-6-carboxylic acid]
15 | 0.26 | CNC(=O)c1cc(Cl)c(COc2cccc(-c3cc(F)c(Cc4nc5c(F)cc(C(=O)O)cc5n4CC4(CF)CC4)cc3F)n2)cn1 [Example 417, 2-(4-(6-((4-chloro-6-(methylcarbamoyl)pyridin-3-yl)methoxy)pyridin-2-yl)-2,5-difluorobenzyl)-4-fluoro-1-((1-(fluoromethyl)cyclopropyl)methyl)-1H-benzo[d]imidazole-6-carboxylic acid]
16 | 0.067 | Cn1nncc1C#Cc1cnc(COc2cccc(-c3cc(F)c(Cc4nc5ccc(C(=O)O)cc5n4C[C@@H]4CCO4)cc3F)n2)c(F)c1 [Example 288, (S)-2-(2,5-difluoro-4-(6-((3-fluoro-5-((1-methyl-1H-1,2,3-triazol-5-yl)ethynyl)pyridin-2-yl)methoxy)pyridin-2-yl)benzyl)-1-(oxetan-2-ylmethyl)-1H-benzo[d]imidazole-6-carboxylic acid]
17 | 0.51 | Cn1ccnc1C#Cc1ccc(COc2cccc(-c3cc(F)c(Cc4nc5ccc(C(=O)O)cc5n4C[C@@H]4CCO4)cc3F)n2)c(F)c1 [Example 148, (S)-2-(2,5-difluoro-4-(6-((2-fluoro-4-((1-methyl-1H-imidazol-2-yl)ethynyl)benzyl)oxy)pyridin-2-yl)benzyl)-1-(oxetan-2-ylmethyl)-1H-benzo[d]imidazole-6-carboxylic acid]
18 | 6.38 | O=C(O)c1ccc2nc(Cc3cc(F)c(-c4cccc(OCc5ccn(CC(F)F)n5)n4)cc3F)n(C[C@@H]3CCO3)c2c1 [Example 64, (S)-2-(4-(6-((1-(2,2-difluoroethyl)-1H-pyrazol-3-yl)methoxy)pyridin-2-yl)-2,5-difluorobenzyl)-1-(oxetan-2-ylmethyl)-1H-benzo[d]imidazole-6-carboxylic acid]
19 | 0.51 | O=C(O)c1ccc2nc(Cc3cc(F)c(-c4cccc(OCc5ccc(-n6cnc(C7CC7)n6)nc5)n4)cc3F)n(C[C@@H]3CCO3)c2c1 [Example 211, 2-[[4-[6-[[6-(3-cyclopropyl-1,2,4-triazol-1-yl)-3-pyridyl]methoxy]-2-pyridyl]-2,5-difluoro-phenyl]methyl]-3-[[(2S)-oxetan-2-yl]methyl]benzimidazole-5-carboxylic acid]
20 | 0.367 | CCOc1nnc(COc2cccc(-c3cc(F)c(Cc4nc5ccc(C(=O)O)cc5n4CC4(CF)CC4)cc3F)n2)s1 [Example 266, 2-(4-(6-((5-ethoxy-1,3,4-thiadiazol-2-yl)methoxy)pyridin-2-yl)-2,5-difluorobenzyl)-1-((1-(fluoromethyl)cyclopropyl)methyl)-1H-benzo[d]imidazole-6-carboxylic acid]
21 | 0.178 | CCOc1nnc(COc2nc(-c3cc(Cl)c(Cc4nc5ccc(C(=O)O)cc5n4[C@@H]4COCC4(C)C)cc3C)ccc2F)s1 [Example 420, (S)-2-(2-chloro-4-(6-((5-ethoxy-1,3,4-thiadiazol-2-yl)methoxy)-5-fluoropyridin-2-yl)-5-methylbenzyl)-1-(4,4-dimethyltetrahydrofuran-3-yl)-1H-benzo[d]imidazole-6-carboxylic acid]
